Experimental data reported in article PMC11530593, “Structural mechanism of human HCN1 hyperpolarization-activated channel inhibition by ivabradine” (The Journal of Biological Chemistry, 2024).
Residue numbers refer to the chain shown, from its start.

Experiments:
HCN1 mutant W281A = molecular target: T1, HCN1 mutant W281A (Homo sapiens, UniProt O60741, W281A); assay: Whole-cell patch-clamp, Ih inhibition, HCN1 mutant; type: cell-based; details: electrophysiological recordings, read-out: IC50 (Fig. 2F)
T1 construct: Full-length WT or mutant human HCN1 were cloned into the pcDNA3.1 vector; expressed in transfected cells; host or cells: HeLa cells, pcDNA3.1 vector, transient lipofection
T1 sequence (O60741 1-890 W281A): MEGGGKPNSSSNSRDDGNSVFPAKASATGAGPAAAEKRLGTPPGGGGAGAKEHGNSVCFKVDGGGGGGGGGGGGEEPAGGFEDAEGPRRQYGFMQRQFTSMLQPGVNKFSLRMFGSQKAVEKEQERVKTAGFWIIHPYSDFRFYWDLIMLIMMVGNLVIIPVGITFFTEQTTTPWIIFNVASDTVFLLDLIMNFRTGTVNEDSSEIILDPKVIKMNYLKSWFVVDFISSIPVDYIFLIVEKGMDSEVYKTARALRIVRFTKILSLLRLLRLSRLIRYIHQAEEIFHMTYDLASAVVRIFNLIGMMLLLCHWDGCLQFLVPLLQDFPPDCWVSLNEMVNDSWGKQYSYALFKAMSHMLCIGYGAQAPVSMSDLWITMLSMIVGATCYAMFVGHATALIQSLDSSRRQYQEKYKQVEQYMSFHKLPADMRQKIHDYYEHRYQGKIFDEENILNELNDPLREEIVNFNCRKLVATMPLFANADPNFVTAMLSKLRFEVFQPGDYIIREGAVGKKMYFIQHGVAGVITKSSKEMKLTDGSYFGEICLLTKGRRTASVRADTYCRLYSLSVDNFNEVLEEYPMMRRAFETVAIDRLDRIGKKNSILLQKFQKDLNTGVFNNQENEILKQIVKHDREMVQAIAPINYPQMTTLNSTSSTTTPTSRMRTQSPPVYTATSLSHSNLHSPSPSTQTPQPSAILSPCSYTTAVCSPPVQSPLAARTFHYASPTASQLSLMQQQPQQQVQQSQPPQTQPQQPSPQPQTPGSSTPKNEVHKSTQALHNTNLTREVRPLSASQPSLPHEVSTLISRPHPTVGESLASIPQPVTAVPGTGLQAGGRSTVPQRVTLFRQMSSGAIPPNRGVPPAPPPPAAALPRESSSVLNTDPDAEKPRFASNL
Experimental: (§1) To elucidate the contribution of these residues to the inhibitory effect of ivabradine, we introduced mutations in ivabradine-interacting residues, converting them into alanines (Fig. 2F).
(§2) Full-length WT or mutant human HCN1 were cloned into the pcDNA3.1 vector for electrophysiological experiments. HeLa cells (from Thermo Fisher Scientific) cultured in Dulbecco's modified Eagle's medium (from Solarbio Life Science) + 10% fetal bovine serum (from ExCell Bio) at 37 °C were transiently transfected using lipofection, and whole-cell patch-clamp recordings were obtained using the Axon 200B amplifier (Molecular Devices) and clampex software (https://www.moleculardevices.com/products/axon-patch-clamp-system/acquisition-and-analysis-software/pclamp-software-suite), 36 to 48 h posttransfection. The extracellular solution contained 110 mM NaCl, 0.5 mM MgCl2, 1.8 mM CaCl2, 5 mM Hepes, 30 mM KCl, and pH was adjusted to 7.4 with NaOH, while the pipette solution contained 130 mM KCl, 10 mM NaCl, 0.5 mM MgCl2, 1 mM EGTA, 5 mM Hepes, and pH was adjusted to 7.4 with KOH. The recordings were performed at room temperature, voltage-clamp mode, and filtered at 1 kHz. The sampling frequency was 10 kHz, and the series resistance was limited to 5 MΩ. To elicit channel currents, step pulses of 3 s duration ranging from −180 mV to −30 mV were applied, followed by a step to −180 mV lasting 1.25 s. The tail currents evoked by the second step were used to determine the voltage-dependent activation curves and calculate the midpoint of activation potential (V1/2). The half maximal inhibitory concentration (IC50) of drugs was determined by recording currents at a pulse of −140 mV and analyzing current amplitudes at varying drug concentrations. The IC50 value was calculated using the Hill equation.

HCN1 mutant Y289A = molecular target: T2, HCN1 mutant Y289A (Homo sapiens, UniProt O60741, Y289A); assay: Whole-cell patch-clamp, Ih inhibition, HCN1 mutant; type: cell-based; details: electrophysiological recordings, read-out: IC50 (Fig. 2F)
T2 construct: Full-length WT or mutant human HCN1 were cloned into the pcDNA3.1 vector; expressed in transfected cells; host or cells: HeLa cells, pcDNA3.1 vector, transient lipofection
T2 sequence (O60741 1-890 Y289A): T1 sequence (O60741 1-890 W281A) with A281W, Y289A
Experimental: as §1, §2

`COc1cc2c(cc1OC)CC(=O)N(CCCN(C)C[C@H]1Cc3cc(OC)c(OC)cc31)CC2` [ivabradine] showed an IC50 (HCN1 mutant W281A) of 17.4 µM and an IC50 (HCN1 mutant Y289A) of 11.8 µM.
